Experimental data: patent US11052092B2, “N-{[2-(piperidin-1-yl)phenyl](phenyl)methyl}-2-(3-oxo-3,4-dihydro-2H-1,4-benzoxazin-7-yl)acetamide derivatives and related compounds as ROR-gamma modulators for treating autoimmune diseases” (Genfit, priority 2017, dated 2021)

The molecules below were run against T1, human RORγt (Homo sapiens, UniProt P51449) (assay: RORE Luciferase/RORγt transactivation assay). Details: COS-7 cells transfected with human IL-17 promoter luciferase reporter and RORγt plasmid; 20 h with compound; read-out: IC50, RORγt activity inhibition.
T1 construct: the full-length cDNA of human RORγt; expressed in transfected cells; host or cells: COS-7 (monkey kidney)
T1 sequence (P51449 1-497 isoform P51449-2): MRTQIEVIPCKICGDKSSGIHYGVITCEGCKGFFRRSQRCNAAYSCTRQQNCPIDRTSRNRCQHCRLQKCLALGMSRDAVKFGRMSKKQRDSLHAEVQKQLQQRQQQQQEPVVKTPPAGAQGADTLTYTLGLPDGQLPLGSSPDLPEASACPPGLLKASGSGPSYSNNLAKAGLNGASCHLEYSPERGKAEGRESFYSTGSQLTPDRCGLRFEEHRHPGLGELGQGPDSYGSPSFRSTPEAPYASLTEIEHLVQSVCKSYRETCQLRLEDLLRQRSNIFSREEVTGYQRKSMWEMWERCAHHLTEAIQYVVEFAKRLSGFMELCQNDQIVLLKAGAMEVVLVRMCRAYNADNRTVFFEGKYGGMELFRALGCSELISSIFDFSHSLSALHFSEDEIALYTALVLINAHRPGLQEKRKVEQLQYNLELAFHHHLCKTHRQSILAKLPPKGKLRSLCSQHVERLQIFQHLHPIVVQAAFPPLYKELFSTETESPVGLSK
Type: cell-based
Description: It is well known that RORγ binds to a conserved non-coding sequence (CNS) enhancer element in the IL-17 promoter.
Culture medium was changed every 2 days.
The 4.3 Kb human IL-17 promoter containing the RORγ-specific CNS enhancer element was PCR amplified from human genomic DNA and cloned into a pGL3-TKLuc2Cp reporter plasmid.
The luciferase reporter plasmid and the RORγt overexpression plasmid were transfected into COS-7 cell line using 4 μLJetPEI™/μg of DNA. Briefly, 150 ng of DNA (ration ½ between RORE-Tk Luc2Cp and cDNA RORγt or the empty vector for the negative control) was served to transfect adherent COS-7 cells in a […] culture flask, in complete medium (see cos-7 cell line culture).
Cells were then detached (using trypsin) and washed by centrifugation at 300 g for 10 minutes. Cell pellet was resuspended in serum free/phenol red free DMEM and seeded in 384 well plates at a density of 10000 cells/well and then incubated for 4 h at 37° C.
Compounds were dissolved in 100% DMSO to obtain 10 mM stock solutions. For each compound, test concentrations were diluted in serum free/phenol red free DMEM using the Genesis Freedom 200™ (TECAN) and added to the cells to obtain a 0.3% DMSO final concentration (in a final volume of 40 μL per well).
The luciferase activity was then measured with 40 μL/well steady-Glo Luciferase assay system (Promega, Madison, Wis.) and after incubation at room temperature for 30 minutes. The luminescence was estimated using the Ultra384 reader (TECAN). Data were collected and analyzed using GraphPad Prism software (GraphPad Software V5.02, San Diego Calif. USA). IC50 in μM and Emax in % were reported for each compound.

Row | SMILES | IC50 [nM]
1 | CC(C)CC(NC(=O)Cc1ccc2c(c1)OCC(=O)N2)c1ccccc1N1CCCCC1 (stereo not shown) [Cpd. 6, N-{3-methyl-1-[2-(piperidin-1-yl)phenyl]butyl}-2-(3-oxo-3,4-dihydro-2H-1,4-benzoxazin-7-yl)acetamide] | 1000 to 10000
2 | O=C1COc2ccc(CC(=O)NC(c3ccccc3)c3ccccc3N3CCCCC3)cc2N1 (stereo not shown) [Cpd. 13, 2-(3-oxo-3,4-dihydro-2H-1,4-benzoxazin-6-yl)-N-{phenyl[2-(piperidin-1-yl)phenyl]methyl}acetamide] | 1000 to 10000
3 | O=C1Cc2cc(CC(=O)NC(c3ccccc3)c3ccccc3N3CCOCC3)ccc2N1 (stereo not shown) [Cpd. 17, N-{[2-(morpholin-4-yl)phenyl](phenyl)methyl}-2-(2-oxo-2,3-dihydro-1H-indol-5-yl)acetamide] | 1000 to 10000
4 | Cc1ccc(C(NC(=O)Cc2ccc3c(c2)CC(=O)N3)c2ccc(C)o2)c(C)c1 (stereo not shown) [Cpd. 29, N-[(2,4-dimethylphenyl)(5-methylfuran-2-yl)methyl]-2-(2-oxo-2,3-dihydro-1H-indol-5-yl)acetamide] | 1000 to 10000
5 | Cc1ccc(C(NC(=O)Cc2ccc3c(c2)C(O)C(=O)N3)c2ccc(C)o2)c(N2CCCCC2)c1 (stereo not shown) [Cpd. 46, 2-(3-hydroxy-2-oxo-2,3-dihydro-1H-indol-5-yl)-N-{[4-methyl-2-(piperidin-1-yl)phenyl](5-methylfuran-2-yl)methyl}acetamide] | 100 to 1000
6 | Cc1ccc(C(NC(=O)Cc2ccc3c(c2)CCC3=O)c2ccc(C)o2)c(N2CCCCC2)c1 (stereo not shown) [Cpd. 51, N-{[4-methyl-2-(piperidin-1-yl)phenyl](5-methylfuran-2-yl)methyl}-2-(1-oxo-2,3-dihydro-1H-inden-5-yl)acetamide] | 100 to 1000
7 | CC(C)=C1C(=O)Nc2ccc(CC(=O)NC(c3ccc(C)o3)c3ccc(C)cc3N3CCCCC3)cc21 (stereo not shown) [Cpd. 55, N-{[4-methyl-2-(piperidin-1-yl)phenyl](5-methylfuran-2-yl)methyl}-2-[2-oxo-3-(propan-2-ylidene)-2,3-dihydro-1H-indol-5-yl]acetamide] | 100 to 1000
8 | Cc1ccc(C(NC(=O)C2(c3ccc4c(c3)CN(S(C)(=O)=O)C4)CC2)c2ccc(Cl)o2)c(C)c1 (stereo not shown) [Cpd. 56, N-[(5-chlorofuran-2-yl)(2,4-dimethylphenyl)methyl]-1-(2-methanesulfonyl-2,3-dihydro-1H-isoindol-5-yl)cyclopropane-1-carboxamide] | 10 to 100
9 | Cc1ccc(C(NC(=O)C2(c3ccc4c(c3)CN(S(C)(=O)=O)C4)CC2)c2ccc(C)o2)c(C)c1 (stereo not shown) [Cpd. 65, N-[(2,4-dimethylphenyl)(5-methylfuran-2-yl)methyl]-1-(2-methanesulfonyl-2,3-dihydro-1H-isoindol-5-yl)cyclopropane-1-carboxamide] | 10 to 100
10 | Cc1ccc(C(NC(=O)C2(c3ccc4[nH]cc(CCO)c4c3)CC2)c2ccc(C)o2)c(N2CCCCC2)c1 (stereo not shown) [Cpd. 66, 1-[3-(2-hydroxyethyl)-1H-indol-5-yl]-N-{[4-methyl-2-(piperidin-1-yl)phenyl](5-methylfuran-2-yl)methyl}cyclopropane-1-carboxamide] | 10 to 100
11 | Cc1ccc(C(NC(=O)Cc2ccc3c(c2)C(=O)CC3)c2ccc(C)o2)c(N2CCCCC2)c1 (stereo not shown) [Cpd. 67, N-{[4-methyl-2-(piperidin-1-yl)phenyl](5-methylfuran-2-yl)methyl}-2-(3-oxo-2,3-dihydro-1H-inden-5-yl)acetamide] | 100 to 1000
12 | Cc1ccc(C(NC(=O)C2(c3ccc4c(ccn4CCO)c3)CC2)c2ccc(C)o2)c(C)c1 (stereo not shown) [Cpd. 69, N-[(2,4-dimethylphenyl)(5-methylfuran-2-yl)methyl]-1-[1-(2-hydroxyethyl)-1H-indol-5-yl]cyclopropane-1-carboxamide] | 10 to 100
13 | Cc1ccc(C(NC(=O)C2(c3ccc4c(c3)CS(=O)(=O)N4C)CC2)c2ccc(C)o2)c(C)c1 (stereo not shown) [Cpd. 70, N-[(2,4-dimethylphenyl)(5-methylfuran-2-yl)methyl]-1-(1-methyl-2,2-dioxo-1,3-dihydro-2,1-benzothiazol-5-yl)cyclopropane-1-carboxamide] | 10 to 100
